This is an account of results in ChEMBL document CHEMBL3751785, “Development and structural analysis of adenosine site binding tankyrase inhibitors” (Bioorg Med Chem Lett, 2016).

The target in test [1] is Poly [ADP-ribose] polymerase 1 (Homo sapiens, UniProt P09874). The experiment in a line: Inhibition of human ARTD1 by fluorescence analysis.
Test [2] has as its target T1, Protein mono-ADP-ribosyltransferase PARP12 (Homo sapiens, UniProt Q9H0J9).
T1 sequence (Q9H0J9 whole entry): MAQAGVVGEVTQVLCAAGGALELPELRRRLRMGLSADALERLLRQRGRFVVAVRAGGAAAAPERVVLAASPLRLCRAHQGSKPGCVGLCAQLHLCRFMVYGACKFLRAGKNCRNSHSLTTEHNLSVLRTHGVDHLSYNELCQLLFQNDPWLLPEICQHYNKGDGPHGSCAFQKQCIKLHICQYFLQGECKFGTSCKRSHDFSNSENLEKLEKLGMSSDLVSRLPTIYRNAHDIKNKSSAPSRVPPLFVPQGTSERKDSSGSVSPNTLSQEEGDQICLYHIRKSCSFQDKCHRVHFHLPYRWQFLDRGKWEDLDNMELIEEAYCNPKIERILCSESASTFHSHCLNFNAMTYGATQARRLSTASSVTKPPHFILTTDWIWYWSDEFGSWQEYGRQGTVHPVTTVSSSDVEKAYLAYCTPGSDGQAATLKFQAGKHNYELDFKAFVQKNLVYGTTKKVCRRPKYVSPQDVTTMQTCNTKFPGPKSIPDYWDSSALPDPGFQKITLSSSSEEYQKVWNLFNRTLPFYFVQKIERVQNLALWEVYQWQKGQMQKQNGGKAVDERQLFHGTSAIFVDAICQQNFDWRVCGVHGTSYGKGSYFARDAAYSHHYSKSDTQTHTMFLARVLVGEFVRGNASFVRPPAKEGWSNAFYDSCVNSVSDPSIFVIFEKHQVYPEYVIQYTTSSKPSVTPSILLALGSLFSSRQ
The experiment in a line: Inhibition of human ARTD12 by fluorescence analysis.

In test [3] the target is Protein mono-ADP-ribosyltransferase PARP14 (Homo sapiens, UniProt Q460N5). Nature of the test: Inhibition of human ARTD8 by fluorescence analysis.
Protein mono-ADP-ribosyltransferase PARP14, sequence (Q460N5 whole entry): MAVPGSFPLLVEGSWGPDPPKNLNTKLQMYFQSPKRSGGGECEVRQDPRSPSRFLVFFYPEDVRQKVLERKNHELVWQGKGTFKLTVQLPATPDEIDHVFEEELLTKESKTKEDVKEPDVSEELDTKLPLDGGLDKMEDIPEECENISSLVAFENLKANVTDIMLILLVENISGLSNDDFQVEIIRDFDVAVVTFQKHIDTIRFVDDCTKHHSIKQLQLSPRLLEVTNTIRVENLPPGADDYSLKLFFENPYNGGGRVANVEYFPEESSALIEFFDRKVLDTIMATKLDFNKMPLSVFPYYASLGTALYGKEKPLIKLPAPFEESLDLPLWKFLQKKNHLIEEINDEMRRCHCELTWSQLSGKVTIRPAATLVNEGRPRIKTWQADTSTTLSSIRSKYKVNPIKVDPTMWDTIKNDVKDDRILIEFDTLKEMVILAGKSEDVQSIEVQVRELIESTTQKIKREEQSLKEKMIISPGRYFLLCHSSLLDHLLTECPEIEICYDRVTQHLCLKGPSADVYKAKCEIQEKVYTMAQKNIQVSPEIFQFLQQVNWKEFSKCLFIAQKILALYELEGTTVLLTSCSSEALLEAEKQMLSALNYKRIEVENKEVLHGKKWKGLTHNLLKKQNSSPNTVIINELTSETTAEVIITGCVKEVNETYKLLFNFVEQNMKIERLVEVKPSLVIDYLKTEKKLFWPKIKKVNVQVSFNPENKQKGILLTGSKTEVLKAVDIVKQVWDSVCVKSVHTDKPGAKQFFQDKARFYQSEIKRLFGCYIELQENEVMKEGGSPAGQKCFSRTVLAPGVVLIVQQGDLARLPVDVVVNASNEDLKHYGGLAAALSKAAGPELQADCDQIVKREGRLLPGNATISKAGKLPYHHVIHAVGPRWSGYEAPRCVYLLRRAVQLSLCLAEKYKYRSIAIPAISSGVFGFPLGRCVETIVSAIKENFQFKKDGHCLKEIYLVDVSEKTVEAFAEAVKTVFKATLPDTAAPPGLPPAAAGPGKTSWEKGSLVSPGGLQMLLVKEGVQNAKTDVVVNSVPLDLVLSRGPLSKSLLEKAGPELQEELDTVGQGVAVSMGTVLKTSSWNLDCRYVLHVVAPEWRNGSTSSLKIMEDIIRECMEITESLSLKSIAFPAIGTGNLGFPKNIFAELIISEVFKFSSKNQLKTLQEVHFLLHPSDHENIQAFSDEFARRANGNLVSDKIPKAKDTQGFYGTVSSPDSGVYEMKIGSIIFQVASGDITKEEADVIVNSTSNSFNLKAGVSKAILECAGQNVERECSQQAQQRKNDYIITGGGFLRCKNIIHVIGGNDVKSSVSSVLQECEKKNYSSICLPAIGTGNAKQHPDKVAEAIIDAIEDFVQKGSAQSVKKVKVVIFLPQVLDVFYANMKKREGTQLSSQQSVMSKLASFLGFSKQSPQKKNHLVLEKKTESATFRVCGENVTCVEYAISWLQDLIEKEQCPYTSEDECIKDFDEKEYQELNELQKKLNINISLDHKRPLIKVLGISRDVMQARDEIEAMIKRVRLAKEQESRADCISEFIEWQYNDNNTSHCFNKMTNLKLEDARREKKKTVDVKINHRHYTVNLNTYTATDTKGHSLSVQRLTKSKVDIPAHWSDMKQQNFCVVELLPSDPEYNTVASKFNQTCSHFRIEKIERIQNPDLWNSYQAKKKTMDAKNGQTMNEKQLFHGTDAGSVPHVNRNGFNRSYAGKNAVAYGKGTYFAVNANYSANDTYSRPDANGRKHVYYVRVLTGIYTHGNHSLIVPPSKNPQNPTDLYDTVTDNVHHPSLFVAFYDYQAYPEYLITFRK
The target in test [4] is T2, Protein mono-ADP-ribosyltransferase PARP10 (Homo sapiens, UniProt Q53GL7).
T2 sequence (Q53GL7 whole entry): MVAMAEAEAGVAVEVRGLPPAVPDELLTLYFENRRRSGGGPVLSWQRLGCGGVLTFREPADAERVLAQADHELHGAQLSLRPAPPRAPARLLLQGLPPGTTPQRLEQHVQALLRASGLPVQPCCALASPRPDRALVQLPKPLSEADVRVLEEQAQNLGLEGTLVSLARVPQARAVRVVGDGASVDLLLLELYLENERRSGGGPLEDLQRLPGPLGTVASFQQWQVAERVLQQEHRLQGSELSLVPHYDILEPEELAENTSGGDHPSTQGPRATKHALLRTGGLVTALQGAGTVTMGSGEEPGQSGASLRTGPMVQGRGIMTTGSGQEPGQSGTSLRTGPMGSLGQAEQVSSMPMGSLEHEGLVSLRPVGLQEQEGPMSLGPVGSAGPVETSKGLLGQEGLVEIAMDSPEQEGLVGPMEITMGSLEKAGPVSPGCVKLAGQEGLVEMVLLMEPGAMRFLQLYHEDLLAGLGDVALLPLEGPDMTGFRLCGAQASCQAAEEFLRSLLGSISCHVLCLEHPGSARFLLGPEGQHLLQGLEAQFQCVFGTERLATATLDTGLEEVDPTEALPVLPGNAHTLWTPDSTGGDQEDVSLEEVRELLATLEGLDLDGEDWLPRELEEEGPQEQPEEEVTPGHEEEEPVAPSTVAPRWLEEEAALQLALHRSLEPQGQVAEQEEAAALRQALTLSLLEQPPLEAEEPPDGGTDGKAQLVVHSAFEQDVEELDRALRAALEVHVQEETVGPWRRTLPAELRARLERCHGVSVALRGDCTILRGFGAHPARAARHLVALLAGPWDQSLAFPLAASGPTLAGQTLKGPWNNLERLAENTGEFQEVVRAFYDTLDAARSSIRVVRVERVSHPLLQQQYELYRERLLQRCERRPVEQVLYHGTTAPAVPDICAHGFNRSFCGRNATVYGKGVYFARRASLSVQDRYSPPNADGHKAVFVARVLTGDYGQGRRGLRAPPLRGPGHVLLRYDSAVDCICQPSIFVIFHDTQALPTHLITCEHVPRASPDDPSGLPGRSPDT
Nature of the test: Inhibition of human ARTD10 by fluorescence analysis.

Test [5] has as its target T3, Protein mono-ADP-ribosyltransferase PARP15 (Homo sapiens, UniProt Q460N3).
T3 sequence (Q460N3 whole entry): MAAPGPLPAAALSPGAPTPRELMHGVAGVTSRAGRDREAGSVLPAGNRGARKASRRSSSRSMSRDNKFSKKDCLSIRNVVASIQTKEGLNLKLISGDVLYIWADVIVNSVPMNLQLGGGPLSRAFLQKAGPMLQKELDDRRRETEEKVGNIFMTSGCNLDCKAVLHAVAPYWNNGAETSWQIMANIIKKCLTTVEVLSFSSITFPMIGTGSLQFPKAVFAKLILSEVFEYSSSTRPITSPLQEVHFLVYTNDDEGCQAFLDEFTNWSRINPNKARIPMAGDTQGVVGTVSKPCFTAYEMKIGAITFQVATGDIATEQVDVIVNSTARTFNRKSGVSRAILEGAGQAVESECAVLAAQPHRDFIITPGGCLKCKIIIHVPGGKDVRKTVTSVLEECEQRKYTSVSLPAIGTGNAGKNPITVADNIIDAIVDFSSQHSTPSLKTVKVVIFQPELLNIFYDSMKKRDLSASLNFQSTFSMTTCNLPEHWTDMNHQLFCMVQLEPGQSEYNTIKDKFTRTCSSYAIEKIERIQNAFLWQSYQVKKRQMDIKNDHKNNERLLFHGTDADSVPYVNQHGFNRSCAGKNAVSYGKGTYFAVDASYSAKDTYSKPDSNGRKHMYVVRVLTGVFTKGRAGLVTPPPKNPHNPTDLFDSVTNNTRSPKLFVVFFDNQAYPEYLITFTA
The experiment in a line: Inhibition of human ARTD7 by fluorescence analysis.

Test [6] has as its target T4, Protein mono-ADP-ribosyltransferase PARP3 (Homo sapiens, UniProt Q9Y6F1).
T4 sequence (Q9Y6F1 whole entry): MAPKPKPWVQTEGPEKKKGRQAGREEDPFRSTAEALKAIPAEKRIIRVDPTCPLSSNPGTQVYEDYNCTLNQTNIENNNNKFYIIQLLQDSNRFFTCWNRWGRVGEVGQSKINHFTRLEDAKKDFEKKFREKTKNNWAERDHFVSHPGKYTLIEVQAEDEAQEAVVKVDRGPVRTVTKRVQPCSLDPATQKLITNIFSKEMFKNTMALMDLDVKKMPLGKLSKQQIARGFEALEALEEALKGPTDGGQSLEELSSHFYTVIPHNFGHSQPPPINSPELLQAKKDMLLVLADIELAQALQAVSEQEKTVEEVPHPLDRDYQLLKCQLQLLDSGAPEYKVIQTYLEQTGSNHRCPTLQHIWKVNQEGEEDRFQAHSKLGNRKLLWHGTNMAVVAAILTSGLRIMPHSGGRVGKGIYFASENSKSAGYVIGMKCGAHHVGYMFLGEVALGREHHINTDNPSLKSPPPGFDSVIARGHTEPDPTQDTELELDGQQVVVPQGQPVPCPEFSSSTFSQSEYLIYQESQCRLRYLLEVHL
The experiment in a line: Inhibition of human ARTD3 by fluorescence analysis.

Test [7] has as its target Protein mono-ADP-ribosyltransferase PARP4 (Homo sapiens, UniProt Q9UKK3). Nature of the test: Inhibition of human ARTD4 by fluorescence analysis.
Test [8] deals with Poly [ADP-ribose] polymerase 2 (Homo sapiens, UniProt Q9UGN5). Nature of the test: Inhibition of human ARTD2 by fluorescence analysis.
Poly [ADP-ribose] polymerase 2, sequence (Q9UGN5 whole entry): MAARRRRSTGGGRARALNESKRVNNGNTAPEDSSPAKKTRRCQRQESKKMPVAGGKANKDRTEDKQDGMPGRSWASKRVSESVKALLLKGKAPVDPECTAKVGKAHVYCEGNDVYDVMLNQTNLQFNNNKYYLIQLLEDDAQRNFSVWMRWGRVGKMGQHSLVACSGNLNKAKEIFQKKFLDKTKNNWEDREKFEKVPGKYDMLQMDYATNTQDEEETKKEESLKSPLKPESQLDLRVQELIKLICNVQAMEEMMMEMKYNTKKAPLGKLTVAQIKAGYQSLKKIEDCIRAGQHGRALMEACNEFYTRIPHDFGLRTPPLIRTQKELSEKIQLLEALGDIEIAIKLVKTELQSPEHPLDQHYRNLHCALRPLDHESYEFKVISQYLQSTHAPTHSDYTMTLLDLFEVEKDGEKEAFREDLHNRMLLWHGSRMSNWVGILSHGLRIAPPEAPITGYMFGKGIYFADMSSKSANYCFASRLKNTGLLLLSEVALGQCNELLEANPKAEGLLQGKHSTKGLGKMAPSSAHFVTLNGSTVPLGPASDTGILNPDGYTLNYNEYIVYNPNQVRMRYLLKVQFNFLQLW

Usually IC50 stands for the concentration that gives 50% inhibition. Higher therefore signals a need for much substance.

Protein mono-ADP-ribosyltransferase PARP4, sequence (Q9UKK3 whole entry): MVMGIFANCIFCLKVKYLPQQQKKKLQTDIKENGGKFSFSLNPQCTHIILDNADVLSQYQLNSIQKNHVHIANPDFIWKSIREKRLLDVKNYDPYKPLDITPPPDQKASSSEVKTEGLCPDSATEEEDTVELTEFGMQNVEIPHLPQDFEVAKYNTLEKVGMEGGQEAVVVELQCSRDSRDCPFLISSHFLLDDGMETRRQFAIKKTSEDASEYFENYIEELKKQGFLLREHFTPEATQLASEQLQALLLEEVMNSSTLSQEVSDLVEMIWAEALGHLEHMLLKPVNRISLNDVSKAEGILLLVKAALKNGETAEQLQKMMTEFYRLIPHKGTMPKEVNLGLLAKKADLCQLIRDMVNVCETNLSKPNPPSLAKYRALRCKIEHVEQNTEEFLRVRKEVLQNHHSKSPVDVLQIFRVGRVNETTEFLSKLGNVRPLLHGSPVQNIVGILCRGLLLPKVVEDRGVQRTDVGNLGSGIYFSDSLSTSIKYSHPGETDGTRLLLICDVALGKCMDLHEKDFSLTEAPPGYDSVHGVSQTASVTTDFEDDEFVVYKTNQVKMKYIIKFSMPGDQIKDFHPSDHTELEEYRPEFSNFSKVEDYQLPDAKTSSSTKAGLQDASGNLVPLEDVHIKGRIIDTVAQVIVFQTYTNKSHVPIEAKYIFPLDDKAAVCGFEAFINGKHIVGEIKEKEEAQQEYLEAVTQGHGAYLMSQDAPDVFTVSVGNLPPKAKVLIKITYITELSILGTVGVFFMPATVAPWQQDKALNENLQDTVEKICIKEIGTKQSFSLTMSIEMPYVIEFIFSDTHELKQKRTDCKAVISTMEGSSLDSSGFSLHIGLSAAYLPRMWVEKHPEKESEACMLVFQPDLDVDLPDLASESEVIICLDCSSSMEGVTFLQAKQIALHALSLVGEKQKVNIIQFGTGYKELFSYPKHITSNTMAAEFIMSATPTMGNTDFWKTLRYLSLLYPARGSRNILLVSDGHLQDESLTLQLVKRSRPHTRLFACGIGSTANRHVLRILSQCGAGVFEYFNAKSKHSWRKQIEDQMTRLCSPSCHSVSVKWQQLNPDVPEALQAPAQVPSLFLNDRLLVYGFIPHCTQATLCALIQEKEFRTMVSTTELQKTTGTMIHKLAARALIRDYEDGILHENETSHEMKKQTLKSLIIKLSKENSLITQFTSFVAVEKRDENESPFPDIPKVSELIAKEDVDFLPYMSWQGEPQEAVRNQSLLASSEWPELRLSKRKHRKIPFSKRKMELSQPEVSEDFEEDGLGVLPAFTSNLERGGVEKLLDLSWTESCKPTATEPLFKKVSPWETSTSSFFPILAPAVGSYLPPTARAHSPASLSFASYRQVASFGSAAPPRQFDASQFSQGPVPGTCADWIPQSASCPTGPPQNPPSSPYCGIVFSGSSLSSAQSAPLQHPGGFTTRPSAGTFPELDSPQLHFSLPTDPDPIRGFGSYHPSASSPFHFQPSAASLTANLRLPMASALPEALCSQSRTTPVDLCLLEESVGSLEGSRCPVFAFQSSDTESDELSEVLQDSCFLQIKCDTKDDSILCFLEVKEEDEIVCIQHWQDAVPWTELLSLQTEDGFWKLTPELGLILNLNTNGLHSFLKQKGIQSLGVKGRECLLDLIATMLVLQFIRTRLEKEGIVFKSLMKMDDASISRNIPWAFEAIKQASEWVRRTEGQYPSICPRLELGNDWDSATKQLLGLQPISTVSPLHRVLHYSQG
Poly [ADP-ribose] polymerase 1, sequence (P09874 whole entry): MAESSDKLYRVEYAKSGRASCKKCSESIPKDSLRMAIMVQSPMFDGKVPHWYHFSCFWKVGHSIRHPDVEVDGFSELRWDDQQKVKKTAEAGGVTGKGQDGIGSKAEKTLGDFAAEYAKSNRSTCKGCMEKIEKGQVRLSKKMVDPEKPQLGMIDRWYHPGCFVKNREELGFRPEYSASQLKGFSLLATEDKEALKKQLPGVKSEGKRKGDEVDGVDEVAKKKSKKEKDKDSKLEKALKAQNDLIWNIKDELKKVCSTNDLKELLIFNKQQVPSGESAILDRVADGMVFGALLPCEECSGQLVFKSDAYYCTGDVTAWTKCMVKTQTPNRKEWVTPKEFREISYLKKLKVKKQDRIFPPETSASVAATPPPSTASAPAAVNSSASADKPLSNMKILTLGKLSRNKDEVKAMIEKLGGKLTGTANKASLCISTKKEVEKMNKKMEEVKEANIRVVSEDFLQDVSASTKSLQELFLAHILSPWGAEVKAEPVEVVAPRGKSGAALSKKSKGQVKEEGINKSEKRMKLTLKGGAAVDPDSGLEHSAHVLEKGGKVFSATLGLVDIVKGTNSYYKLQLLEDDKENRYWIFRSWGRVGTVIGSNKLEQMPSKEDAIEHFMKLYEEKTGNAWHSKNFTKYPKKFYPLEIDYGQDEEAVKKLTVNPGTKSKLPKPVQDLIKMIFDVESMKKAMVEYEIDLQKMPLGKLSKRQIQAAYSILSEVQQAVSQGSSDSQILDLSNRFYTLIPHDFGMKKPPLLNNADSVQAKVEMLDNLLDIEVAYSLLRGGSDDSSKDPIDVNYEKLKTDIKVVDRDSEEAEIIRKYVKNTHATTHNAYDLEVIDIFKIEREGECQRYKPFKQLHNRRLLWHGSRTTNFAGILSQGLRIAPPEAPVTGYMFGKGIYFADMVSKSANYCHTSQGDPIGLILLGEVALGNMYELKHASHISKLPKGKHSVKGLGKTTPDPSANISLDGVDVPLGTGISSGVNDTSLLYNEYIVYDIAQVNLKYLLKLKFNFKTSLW

On to `COc1ccc(C(=O)Nc2ccc(C(=O)N(c3ccncn3)c3ccccc3Cl)cc2)cc1`, for which the half-inhibitory concentration (IC50) in test [1] was 77 µM; in test [2], > 10 µM; in test [3] it was > 10 µM; in test [4], > 10 µM; in test [5], > 10 µM; in test [6], > 100 µM. In addition, the IC50 in test [7] and in test [8] was > 100 µM in each case.
